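Tested at 5 concentrations; 48 h exposure; 96-well plates; endpoints linearly interpolated, else capped at highest concentration. The concentration for 50% growth inhibition is given as GI50. TGI denotes the concentration required for complete inhibition of growth.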
How the values were obtained:
Assay in all cases: DTP human tumour cell line panel, 48 h; in the data active means GI50 below about 0.43 µM; inactive means the rest
[1] = tested on: 786-0 renal
[2] = tested on: A498 renal
[3] = tested on: A549 NSCLC
[4] = tested on: ACHN renal
[5] = tested on: BT-549 breast
[6] = tested on: CAKI-1 renal
[7] = tested on: CCRF-CEM leukemia
[8] = tested on: COLO 205 colon
[9] = tested on: DU-145 prostate
[10] = tested on: EKVX NSCLC
[11] = tested on: HCC-2998 colon
[12] = tested on: HCT-116 colon
[13] = tested on: HCT-15 colon
[14] = tested on: HL-60(TB) leukemia
[15] = tested on: HOP-62 NSCLC
[16] = tested on: HOP-92 NSCLC
[17] = tested on: HS 578T breast
[18] = tested on: HT29 colon
[19] = tested on: IGROV1 ovarian
[20] = tested on: K-562 leukemia
[21] = tested on: KM12 colon
[22] = tested on: LOX IMVI melanoma
[23] = tested on: M14 melanoma
[24] = tested on: MALME-3M melanoma
[25] = tested on: MCF7 breast
[26] = tested on: MDA-MB-231 breast
[27] = tested on: MDA-MB-435
[28] = tested on: MDA-N
[29] = tested on: MOLT-4 leukemia
[30] = tested on: NCI-H226 lung
[31] = tested on: NCI-H23 lung
[32] = tested on: NCI-H460 lung
[33] = tested on: NCI-H522 lung
[34] = tested on: NCI/ADR-RES ovarian
[35] = tested on: OVCAR-3 ovarian
[36] = tested on: OVCAR-4 ovarian
[37] = tested on: OVCAR-5 ovarian
[38] = tested on: OVCAR-8 ovarian
[39] = tested on: PC-3 prostate
[40] = tested on: RPMI-8226 leukemia
[41] = tested on: RXF 393 renal
[42] = tested on: SF-268 CNS
[43] = tested on: SF-295 CNS
[44] = tested on: SF-539 CNS
[45] = tested on: SK-MEL-2 melanoma
[46] = tested on: SK-MEL-28 melanoma
[47] = tested on: SK-MEL-5 melanoma
[48] = tested on: SK-OV-3 ovarian
[49] = tested on: SN12C renal
[50] = tested on: SNB-19 CNS
[51] = tested on: SNB-75 CNS
[52] = tested on: SR leukemia
[53] = tested on: SW-620 colon
[54] = tested on: T-47D breast
[55] = tested on: TK-10 renal
[56] = tested on: U251 CNS
[57] = tested on: UACC-257 melanoma
[58] = tested on: UACC-62 melanoma
[59] = tested on: UO-31 renal

NC(N)=NS(=O)(=O)c1ccc(Nc2c3ccccc3nc3c(C(=O)NCCO)cccc23)cc1
inactive: GI50 [1] 21 µM | GI50 [2] 13.6 µM | GI50 [3] 20.1 µM | GI50 [4] 20 µM | GI50 [5] 33.8 µM | GI50 [6] 22.8 µM | GI50 [7] 19.9 µM | GI50 [8] 33.6 µM | GI50 [9] 15.3 µM | GI50 [10] 25.7 µM | GI50 [12] 21.9 µM | GI50 [13] 32.2 µM | GI50 [14] 16.9 µM | GI50 [15] 20 µM | GI50 [17] 21.3 µM | GI50 [18] 29.7 µM | GI50 [19] 17.8 µM | GI50 [20] 35.1 µM | GI50 [21] 15.4 µM | GI50 [22] 28 µM | GI50 [23] 26.3 µM | GI50 [24] 16.7 µM | GI50 [25] 13.5 µM | GI50 [26] 24.6 µM | GI50 [27] 23.3 µM | GI50 [28] 17.8 µM | GI50 [29] 4.78 µM | GI50 [31] 26.3 µM | GI50 [32] 9.16 µM | GI50 [33] 16.6 µM | GI50 [34] 48.7 µM | GI50 [35] 17.1 µM | GI50 [36] 25.3 µM | GI50 [37] 22.4 µM | GI50 [38] 29.8 µM | GI50 [39] 22.2 µM | GI50 [40] 15 µM | GI50 [41] 19.6 µM | GI50 [42] 16.3 µM | GI50 [43] 20.5 µM | GI50 [44] 29.5 µM | GI50 [45] 26.6 µM | GI50 [46] 20.3 µM | GI50 [47] 15.6 µM | GI50 [48] 51.6 µM | GI50 [49] 26.7 µM | GI50 [50] 26.6 µM | GI50 [52] 30.7 µM | GI50 [53] 17.2 µM | GI50 [54] 11 µM | GI50 [55] 18.7 µM | GI50 [56] 26 µM | GI50 [57] 39.4 µM | GI50 [58] 18.1 µM | GI50 [59] 18 µM
active: GI50 [11] 0.0928 µM
55.2 µM: TGI [51]
0.747 µM: TGI [16]
> 100 µM: TGI [7] | TGI [12] | TGI [34]
60.7 µM: TGI [43]
0.322 µM: TGI [30]

COc1ccc2cc(NC(=O)N/N=C\c3ccc([N+](=O)[O-])cc3)ccc2c1
76.5 µM: TGI [5]
48.5 µM: TGI [15]
87.3 µM: TGI [38]
51 µM: TGI [33]
97.2 µM: TGI [34]
> 100 µM: TGI [1] | TGI [2] | TGI [3] | TGI [4] | TGI [6] | TGI [7] | TGI [8] | TGI [9] | TGI [10] | TGI [11] | TGI [12] | TGI [13] | TGI [14] | TGI [16] | TGI [17] | TGI [18] | TGI [19] | TGI [20] | TGI [21] | TGI [22] | TGI [23] | TGI [24] | TGI [25] | TGI [26] | TGI [27] | TGI [28] | TGI [29] | TGI [30] | TGI [32] | TGI [35] | TGI [37] | TGI [39] | TGI [40] | TGI [43] | TGI [45] | TGI [46] | TGI [47] | TGI [48] | TGI [49] | TGI [52] | TGI [53] | TGI [54] | TGI [56] | TGI [57] | TGI [58]
55.4 µM: TGI [42]
47.9 µM: TGI [50]
46.4 µM: TGI [59]
5.74 µM: TGI [36]
65.4 µM: TGI [51]
77.9 µM: TGI [31]
45.1 µM: TGI [41]

CCCCCCc1cc2cc(-c3csc(CC#N)n3)c(=O)oc2cc1O
> 78.6 µM: TGI [59]
> 60.2 µM: TGI [5]
> 64.2 µM: TGI [1]
> 89.2 µM: TGI [41]
55.2 µM: TGI [26]
12.9 µM: TGI [36]
69 µM: TGI [16]
97.6 µM: TGI [48]
> 66.9 µM: TGI [14]
> 100 µM: TGI [2] | TGI [3] | TGI [4] | TGI [6] | TGI [7] | TGI [8] | TGI [9] | TGI [10] | TGI [11] | TGI [12] | TGI [13] | TGI [15] | TGI [17] | TGI [18] | TGI [19] | TGI [20] | TGI [21] | TGI [22] | TGI [23] | TGI [24] | TGI [25] | TGI [27] | TGI [28] | TGI [29] | TGI [31] | TGI [32] | TGI [33] | TGI [34] | TGI [35] | TGI [37] | TGI [38] | TGI [39] | TGI [40] | TGI [42] | TGI [43] | TGI [45] | TGI [46] | TGI [47] | TGI [49] | TGI [50] | TGI [51] | TGI [52] | TGI [53] | TGI [54] | TGI [55] | TGI [56] | TGI [57] | TGI [58]
> 64.5 µM: TGI [44]
> 71.1 µM: TGI [30]
